Measured values reported in patent US20260092074A1, “Annelated Pyridines as Steroidogenesis Inhibitors, Preparation Method and Use Thereof” (Guangzhou Vinnocent Pharmaceutical Limited, priority 2022, published 2026).

Assays:
[1] = biological target: T1, human CYP11B1 (Homo sapiens, UniProt P15538); assay: Inhibition of hCYP11B1 in transfected V79 cells; assay type: cell-based; conditions: hamster V79 cells expressing human CYP11B1; substrate 11-deoxycortisol 200 nM
T1 construct: expressed in transfected cells
T1 sequence (P15538 25-503): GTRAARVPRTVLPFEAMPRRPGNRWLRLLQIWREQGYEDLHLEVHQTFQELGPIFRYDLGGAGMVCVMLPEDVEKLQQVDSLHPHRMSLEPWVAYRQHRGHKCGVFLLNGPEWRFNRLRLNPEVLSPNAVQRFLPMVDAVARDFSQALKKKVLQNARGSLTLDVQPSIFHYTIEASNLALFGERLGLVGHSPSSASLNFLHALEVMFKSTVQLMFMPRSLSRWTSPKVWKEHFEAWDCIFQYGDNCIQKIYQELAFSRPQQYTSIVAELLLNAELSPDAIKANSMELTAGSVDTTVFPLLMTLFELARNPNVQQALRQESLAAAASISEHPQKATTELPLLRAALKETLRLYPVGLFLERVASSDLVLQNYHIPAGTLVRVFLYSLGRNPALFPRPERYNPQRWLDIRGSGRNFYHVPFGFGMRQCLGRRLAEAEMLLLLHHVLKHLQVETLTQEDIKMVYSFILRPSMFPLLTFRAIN
How it was run: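 Reactions started with 200 nM 11-deoxycortisol, ran for 30 min and were stopped with ethyl acetate, after a 2 h compound preincubation. The host was stably transfected V79 hamster cells carrying human CYP11B1 plus rat P450 reductase. Percent inhibition, from LC-MS/MS or HPLC (260 nm) quantitation of substrate and product, gave the IC50.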

[2] = biological target: T2, human CYP11B2 (Homo sapiens, UniProt P19099); assay: Inhibition of hCYP11B2 in transfected V79 cells; assay type: cell-based; conditions: hamster V79 cells expressing human CYP11B2; substrate 11-deoxycorticosterone 200 nM
T2 construct: expressed in transfected cells
T2 sequence (P19099 25-503): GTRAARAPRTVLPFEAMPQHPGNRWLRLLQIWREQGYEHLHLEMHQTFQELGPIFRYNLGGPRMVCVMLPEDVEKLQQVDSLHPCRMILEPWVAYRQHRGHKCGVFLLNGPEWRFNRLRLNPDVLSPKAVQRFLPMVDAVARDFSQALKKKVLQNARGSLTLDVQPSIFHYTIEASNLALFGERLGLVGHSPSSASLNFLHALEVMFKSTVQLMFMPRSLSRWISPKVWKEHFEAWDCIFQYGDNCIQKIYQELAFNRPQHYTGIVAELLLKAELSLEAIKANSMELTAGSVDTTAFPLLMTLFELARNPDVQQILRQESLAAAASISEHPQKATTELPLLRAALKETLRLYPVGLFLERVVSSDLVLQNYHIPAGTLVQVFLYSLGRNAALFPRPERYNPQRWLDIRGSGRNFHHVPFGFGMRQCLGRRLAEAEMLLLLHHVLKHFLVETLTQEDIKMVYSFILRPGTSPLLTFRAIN
How it was run: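 The substrate (200 nM, 30 min) was added after a 2 hour compound pre-incubation in lentivirus-transduced V79 cells stably expressing human CYP11B2 plus rat NADPH-P450 reductase.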

Row | Compound | IC50 [1] [nM] | IC50 [2] [nM]
1 | N#Cc1ccc(-c2cncc3c2OCCN3S(=O)(=O)C2CN(Cc3cccc(C#N)c3)C2)cc1 [O120, 3-((3-((8-(4-Cyanophenyl)-2,3-dihydro-4H-pyrido[4,3-b][1,4]oxazin-4-yl)sulfonyl)azetidin-1-yl)methyl)benzonitrile] | 29 | 0.3
2 | COc1ccc(CCC(=O)N2CCOc3c(-c4ccc(C#N)cc4)cncc32)cc1 [O51, 4-(4-(3-(4-Methoxyphenyl)propanoyl)-3,4-dihydro-2H-pyrido[4,3-b][1,4]oxazin-8-yl)benzo nitrile] | 24 | 0.7
3 | N#Cc1ccc(-c2cncc3c2CCN3C(=O)CCl)cc1 [C43, 4-(1-(2-Chloroacetyl)-2,3-dihydro-1H-pyrrolo[2,3-c]pyridin-4-yl)benzonitrile] | 897 | 99
4 | COc1ccc(C(=O)N2CCc3c(-c4ccc(C#N)cc4)cncc32)cc1 [C24, 4-(1-(4-Methoxybenzoyl)-2,3-dihydro-1H-pyrrolo[2,3-c]pyridin-4-yl)benzonitrile] | 124 | 2.3
5 | N#Cc1ccc(-c2cncc3c2OCCN3C(=O)C2CN(S(=O)(=O)c3cccs3)C2)cc1 [O64, 4-(4-(1-(Thiophen-2-ylsulfonyl)azetidine-3-carbonyl)-3,4-dihydro-2H-pyrido[4,3-b][1,4]oxazin-8-yl)benzonitrile] | 63 | 0.5
6 | Cc1ccccc1C(=O)n1ccc2c(-c3ccc(C#N)cc3)cncc21 [E27, 4-(1-(2-Methylbenzoyl)-1H-pyrrolo[2,3-c]pyridin-4-yl)benzonitrile] | 73 | 1.5
7 | CC(=O)Nc1nc(C)c(S(=O)(=O)N2CCSc3c(-c4cc5cc(Cl)ccc5o4)cncc32)s1 [S57, N-(5-((8-(5-Chlorobenzofuran-2-yl)-2,3-dihydro-4H-pyrido[4,3-b][1,4]thiazin-4-yl)sulfonyl)-4-methylthiazol-2-yl)acetamide] | 66 | 3.9
8 | N#Cc1ccc(-c2cncc3c2OCCN3S(=O)(=O)C2CN(S(=O)(=O)c3cccc(C#N)c3)C2)cc1 [O115, 3-((3-((8-(4-Cyanophenyl)-2,3-dihydro-4H-pyrido[4,3-b][1,4]oxazin-4-yl)sulfonyl)azetidin-1-yl)sulfonyl)benzonitrile] | 104 | 3.2
9 | N#Cc1ccc(-c2cncc3c2OCCN3C(=O)c2cccc(C(F)(F)F)c2)cc1 [O25, 4-(4-(3-(Trifluoromethyl)benzoyl)-3,4-dihydro-2H-pyrido[4,3-b][1,4]oxazin-8-yl)benzonitrile] | 476 | 18.1
10 | N#Cc1ccc(-c2cncc3c2OCCN3C(=O)C2CN(Cc3cccc(C#N)c3)C2)cc1 [O80, 3-((3-(8-(4-Cyanophenyl)-3,4-dihydro-2H-pyrido[4,3-b][1,4]oxazine-4-carbonyl)azetidin-1-yl)methyl)benzonitrile] | 185 | 1
11 | O=C(c1ccc(F)cc1)n1ccc2c(-c3cc4ccccc4o3)cncc21 [E32, (4-(Benzofuran-2-yl)-1H-pyrrolo[2,3-c]pyridin-1-yl)(4-fluorophenyl)methanone] | 269 | 13
12 | O=S(=O)(C1CC2(COC2)C1)N1CCSc2c(-c3cc4cc(Cl)ccc4o3)cncc21 [S66, 4-((2-Oxaspiro[3.3]heptan-6-yl)sulfonyl)-8-(5-chlorobenzofuran-2-yl)-3,4-dihydro-2H-pyrido[4,3-b][1,4]thiazine] | 587 | 3.8
13 | COc1cccc(C(=O)N2CC(C(=O)N3CCOc4c(-c5ccc(C#N)cc5)cncc43)C2)c1 [O76, 4-(4-(1-(3-Methoxybenzoyl)azetidine-3-carbonyl)-3,4-dihydro-2H-pyrido[4,3-b][1,4]oxazin-8-yl)benzonitrile] | 146 | 1.6
14 | COc1cccc(C(=O)N2CCc3c(-c4ccc(C#N)cc4)cncc32)c1 [C26, 4-(1-(3-Methoxybenzoyl)-2,3-dihydro-1H-pyrrolo[2,3-c]pyridin-4-yl)benzonitrile] | 356 | 2.3

Stronger by IC50 [1], values ahead:

Row | IC50 [1] [nM] | IC50 [2] [nM] | Compound
15 | 22 | 1.7 | N#Cc1ccc(-c2cncc3c2SCCN3S(=O)(=O)C2CN(S(=O)(=O)c3ccc(F)cc3)C2)cc1 [S74, 4-(4-((1-((4-Fluorophenyl)sulfonyl)azetidin-3-yl)sulfonyl)-3,4-dihydro-2H-pyrido[4,3-b][1,4]thiazin-8-yl)benzonitrile]
16 | 10.2 | 0.4 | N#Cc1ccc(-c2cncc3c2SCCN3S(=O)(=O)c2ccc(C(F)(F)F)cc2)cc1 [S17, 4-(4-((4-(Trifluoromethyl)phenyl)sulfonyl)-3,4-dihydro-2H-pyrido[4,3-b][1,4]thiazin-8-yl) benzonitrile]
17 | 5.4 | 0.09 | COc1ccc(S(=O)(=O)N2CCSc3c(-c4ccc(F)c(C)c4)cncc32)cc1 [S33, 8-(4-Fluoro-3-methylphenyl)-4-((4-methoxyphenyl)sulfonyl)-3,4-dihydro-2H-pyrido[4,3-b][1,4]thiazine]
18 | 4.8 | 0.25 | N#Cc1ccc(-c2cncc3c2SCCN3S(=O)(=O)c2cccc(Cl)c2)cc1 [S14, 4-(4-((3-Chlorophenyl)sulfonyl)-3,4-dihydro-2H-pyrido[4,3-b][1,4]thiazin-8-yl)benzonitrile]
19 | 2.1 | 0.15 | Cc1cccc(S(=O)(=O)N2CCSc3c(-c4ccc(C#N)cc4)cncc32)c1 [S11, 4-(4-(m-Tolylsulfonyl)-3,4-dihydro-2H-pyrido[4,3-b][1,4]thiazin-8-yl)benzonitrile]
20 | 1.9 | 0.15 | N#Cc1ccc(-c2cncc3c2CCN3S(=O)(=O)c2ccc(F)cc2)cc1 [C7, 4-(1-((4-Fluorophenyl)sulfonyl)-2,3-dihydro-1H-pyrrolo[2,3-c]pyridin-4-yl)benzonitrile]
21 | 1.2 | 0.1 | COc1ccc(S(=O)(=O)N2CCSc3c(-c4ccc(C#N)cc4)cncc32)cc1 [S13, 4-(4-((4-Methoxyphenyl)sulfonyl)-3,4-dihydro-2H-pyrido[4,3-b][1,4]thiazin-8-yl)benzonitrile]
22 | 1.1 | 0.13 | N#Cc1ccc(-c2cncc3c2SCCN3S(=O)(=O)c2cccs2)cc1 [S24, 4-(4-(Thiophen-2-ylsulfonyl)-3,4-dihydro-2H-pyrido[4,3-b][1,4]thiazin-8-yl)benzonitrile]
23 | 0.91 | 0.2 | N#Cc1ccc(-c2cncc3c2OCCN3S(=O)(=O)c2ccc3ccccc3c2)cc1 [O18, 4-(4-(Naphthalen-2-ylsulfonyl)-3,4-dihydro-2H-pyrido[4,3-b][1,4]oxazin-8-yl)benzonitrile]
24 | 0.48 | 0.23 | Cc1cccc(S(=O)(=O)N2CCOc3c(-c4ccc(C#N)cc4)cncc32)c1 [O5, 4-(4-(m-Tolylsulfonyl)-3,4-dihydro-2H-pyrido[4,3-b][1,4]oxazin-8-yl)benzonitrile]
25 | 0.2 | 0.1 | N#Cc1ccc(-c2cncc3c2ccn3S(=O)(=O)c2ccc(C(F)(F)F)cc2)cc1 [E7, 4-(1-((4-(Trifluoromethyl)phenyl)sulfonyl)-1H-pyrrolo[2,3-c]pyridin-4-yl)benzonitrile]
26 | 0.04 | 0.56 | N#Cc1ccc(-c2cncc3c2OCCN3S(=O)(=O)c2cccs2)cc1 [O16, 4-(4-(Thiophen-2-ylsulfonyl)-3,4-dihydro-2H-pyrido[4,3-b][1,4]oxazin-8-yl)benzonitrile]
